Literature values in patent US8481518B2, “Quaternary antimuscarinic compounds for the treatment of bladder diseases” (University of Rochester, priority 2003, dated 2013).
Counter-ions that a name gives are not always drawn.

Columns and labels:
[1] = test system: all subtypes of human muscarinic receptors; conditions: in vitro
[2] = generally 25 mg twice daily, adults with urge incontinence
[3] = intravesical instillation two to three times daily
[4] = oral, 5 mg/kg four times/day

COC(=O)C1=CC[C@@H]2CC[C@H]1N2C [AEME, Anhydroecgonine methyl ester]
cholinergic agonist activity (muscarinic receptors; guinea pig tracheal rings and detrusor muscle in vitro): lacked cholinergic agonist activity
muscarinic antagonism (muscarinic receptors; in vitro): potent non-competitive muscarinic antagonist

C[N+]1(C)[C@@H]2C[C@@H](OC(=O)C(O)(c3cccs3)c3cccs3)C[C@H]1[C@@H]1O[C@@H]12 [tiotropium bromide, 6β,7β,Epoxy-3α-[2-hydroxy-2,2-di(2-thienyl)acetoxy]-8,8-dimethyl-1αH,5αH-tropanium bromide]
antagonism at all subtypes of human muscarinic receptors [1]: 10-11 M

CC(CC(c1ccccc1)c1ccccc1)NC(C)(C)C (stereo not drawn) [terodiline]
effect on micturition frequency and incontinence episodes [2]: reduced micturition frequency and incontinence episodes

CCN(CC)CC#CCOC(=O)C(O)(c1ccccc1)C1CCCCC1 (stereo not drawn) [oxybutynin, (4-diethylamino)2-butynyl-cc-cyclohexyl-a-hydroxybenzeneacetate HCl]
patients dropping out due to inability to tolerate catheterization or difficulty retaining drug solution [3]: 21%
severe mouth dryness, subjects affected [4]: 84%
